In article PMC5713249, “PeaTAR1B: Characterization of a Second Type 1 Tyramine Receptor of the American Cockroach, Periplaneta americana” (International Journal of Molecular Sciences, 2017):

Experiments:
PeaTAR1B (PeaTAR1B-HA) [1] = target: T1, PeaTAR1B (PeaTAR1B-HA) (Periplaneta americana, UniProt A0A239QQ38); assay: attenuation of NKH 477-stimulated cAMP, CNG channel / Fluo-4 Ca2+ fluorescence in HEK […] flpTM cells; format: cell-based
T1 construct: stably expressed in HEK 293 flpTM cells
T1 sequence (A0A239QQ38 1-481): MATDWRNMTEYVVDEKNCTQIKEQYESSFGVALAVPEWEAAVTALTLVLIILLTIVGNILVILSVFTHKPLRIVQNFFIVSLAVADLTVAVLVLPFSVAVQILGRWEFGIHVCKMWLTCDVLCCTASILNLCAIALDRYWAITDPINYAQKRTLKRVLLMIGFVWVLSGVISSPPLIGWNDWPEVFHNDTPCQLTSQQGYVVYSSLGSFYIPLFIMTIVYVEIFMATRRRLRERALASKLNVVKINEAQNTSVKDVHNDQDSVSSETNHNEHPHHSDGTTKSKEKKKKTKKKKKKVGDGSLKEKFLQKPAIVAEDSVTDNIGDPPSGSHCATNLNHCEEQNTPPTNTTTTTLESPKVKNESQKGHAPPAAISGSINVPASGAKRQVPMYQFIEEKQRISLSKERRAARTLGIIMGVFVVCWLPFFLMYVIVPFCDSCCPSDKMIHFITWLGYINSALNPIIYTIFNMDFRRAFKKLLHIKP

PeaTAR1B (PeaTAR1B-HA) [2] = target: T1, PeaTAR1B (PeaTAR1B-HA); assay: block of tyramine-induced attenuation of NKH 477-stimulated cAMP, CNG channel / Fluo-4 fluorescence in HEK […] flpTM cells; format: cell-based

SMILES	EC50 (PeaTAR1B (PeaTAR1B-HA) [1])	IC50 (PeaTAR1B (PeaTAR1B-HA) [2])
NCCc1ccc(O)cc1 [tyramine]	~0.0063 µM	–
COC(=O)[C@@H]1[C@H]2C[C@H]3c4[nH]c5ccccc5c4CCN3C[C@@H]2CC[C@@H]1O [yohimbine]	–	0.74 µM
